Where “and” joins values, the source holds several entries; their conditions need not be identical. Equal values may be shown once.
Experiments:
[1] = Determination of aqueous stability (UHPLC-DAD, 4 h at 37 °C); assay type: physicochemical; details: for Aqueous stability at all three investigated pH values (in words): pH 1.2, 6.8 and 7.4, no notable change in peak areas, no degradation products detected; for Aqueous stability pH = 1.2: compound concentration after 4 h of incubation compared to the initial value: pH 1.2 simulated gastric fluid, n = 3; for Aqueous stability pH = 6.8: compound concentration after 4 h of incubation compared to the initial value: pH 6.8 simulated intestinal fluid; for Aqueous stability pH = 6.8: compound concentration after 4 h of incubation compared to the initial value / Aqueous stability pH = 7.4: compound concentration after 4 h of incubation compared to the initial value: n = 3, * p < 0.05 vs initial; for Aqueous stability pH = 7.4: compound concentration after 4 h of incubation compared to the initial value: pH 7.4 PBS; for Significance of decrease in compound concentration (in words): paired-sample t-test, p < 0.05, pH 1.2, 6.8, 7.4
Method: The aqueous solutions and buffers were prepared as follows: pH = 1.2, 1.0 g NaCl and 3.5 mL HCl dissolved in distilled water to achieve the final volume of 500.0 mL; pH = 6.8, 20.2 g Na2HPO4·7H2O and 3.4 g NaH2PO4·H2O dissolved in distilled water to achieve the final volume of 1000.0 mL, pH adjustment with 0.5 M NaOH or 0.5 M HCl; pH = 7.4, one PBS tablet (phosphate buffered saline, pH 7.4; Sigma Aldrich, St. Louis, MO, USA) dissolved in 200.0 mL of distilled water.
With the aforementioned buffers, 10 mM dimethyl sulfoxide stock solutions of the isolated compounds were diluted 100-fold. […] For degradable compounds, the above-mentioned validated UHPLC-DAD method was used to examine the change in compound concentration. All experiments were performed in triplicates (n = 3).

[2] = Parallel artificial membrane permeability assay for the gastrointestinal tract (PAMPA-GI); assay type: in vitro ADME; details: for Papp at 4 h, 100 µM: PAMPA, read-out: log Pe PAMPA-GI (converted); for log Pe PAMPA-GI: donor pH 6.8, acceptor pH 7.4, 37 °C, 4 h, n = 9, Pe in cm/s, n.d. = not detected in the acceptor phase
Method: (§1) The test solutions were prepared with dimethyl sulfoxide (DMSO) at the concentration of 10.0 mM. These were diluted with phosphate buffers (pH = 7.4 for the PAMPA-BBB and pH = 6.8 for the PAMPA-GI) to obtain the donor solutions (297.0 μL buffer + 3.0 μL DMSO solution) and filtered through Phenex-RC 15 mm, 0.2 μm syringe filters (Gen-Lab Ltd., Budapest, Hungary). A parallel artificial membrane permeability assay (PAMPA) system was used to determine the effective permeability (Pe) for the compounds of interest. Each well of the top plate (96-well polycarbonate-based filter donor plates (Multiscreen™-IP, MAIPN4510, pore size 0.45 μm; Merck, Darmstadt, Germany) was coated with 5 μL of porcine polar brain lipid extract (PBLE) solution (16.0 mg PBLE + 8.0 mg cholesterol dissolved in 600.0 μL n-dodecane) for the PAMPA-BBB and with 5 μL of the mixture of 8.0 mg phosphatidylcholine + 4.0 mg cholesterol dissolved in 300.0 μL n-dodecane for PAMPA-GI. Thereafter, 150.0 μL of the filtrate was placed on the membrane. The bottom plate (96-well PTFE acceptor plates (MultiScreen Acceptor plate, MSSACCEPTOR; Millipore, Burlington, MA, USA)), was filled with a 300.0 μL buffer solution (0.01 M PBS buffer, pH = 7.4). The donor and acceptor plates were fit, and then the sandwich system was incubated at 37 °C for 4 h in a Stat-Fax 2200. After the incubation the PAMPA plates were separated and the compound concentrations in the donor (CD(t)) and acceptor (CA(t)) solutions, as well as in the donor solution at the zero time point (CD(0)) were determined by UHPLC-DAD. The effective permeability and the membrane retention in the PAMPA-BBB (1) and the PAMPA GI (2) experiments were calculated by the following equations [12]:(1) Pe=−2.303/A(t−τSS)·(VA·VD/VA+VD)·lg[1−(VA+VD/(1−MR)·VD)×(CA(t)/CD(0))] (2) Pe=−2.303/A(t−τSS))·(1/1+ra)·lg[−ra+(1+ra/1−MR)×(CD(t)/CD(0))] where Pe is the effective permeability coefficient (cm/s), A is the filter area (0.24 cm^2), VD and VA are the volumes in the donor (0.15 cm^3) and acceptor phases (0.30 cm^3), t is the incubation time (s), τSS is the time (s) to reach steady-state (240 s), CD(t) is the concentration (mol/cm^3) of the compound in the donor phase at time t, CD(0) is the concentration (mol/cm^3) of the compound in the donor phase at time 0, MR is the estimated membrane retention factor (the estimated mole fraction of solute lost to the membrane) and ra is the sink asymmetry ratio (gradient-pH-induced), defined as (3) ra=VD/VA×Pe(A→D)/Pe(D→A) (4) MR=1−CD(t)/CD(0)−VA/VDCA(t)/CD(0)
(§2) All experiments were performed in triplicates on three consecutive days (n = 9), caffeine standard was used as positive, while rutin as negative control. ClogP values were calculated by ChemAxon Marvin 22.3.

[3] = Parallel artificial membrane permeability assay for the blood–brain barrier (PAMPA-BBB); assay type: in vitro ADME; details: for log Pe PAMPA-BBB: donor pH 7.4, acceptor pH 7.4, 37 °C, 4 h, n = 9, Pe in cm/s, n.d. = not detected in the acceptor phase
Method: as §1, §2

SMILES | Aqueous stability at all three investigated pH values (in words) [1] | Aqueous stability pH = 1.2: compound concentration after 4 h of incubation compared to the initial value [1] [%] | Aqueous stability pH = 6.8: compound concentration after 4 h of incubation compared to the initial value [1] | Aqueous stability pH = 7.4: compound concentration after 4 h of incubation compared to the initial value [1] | Papp at 4 h, 100 µM [2] [×10⁻⁶ cm/s] | log Pe PAMPA-BBB [3] | log Pe PAMPA-GI [2] | Aqueous stability pH = 7.4: compound concentration after 4 h of incubation compared to the initial value ([1]; listed as 2) [%] | Papp at 4 h, 100 µM ([3]; PAMPA, pH 7.4, read-out: log Pe PAMPA-BBB (converted)) [×10⁻⁶ cm/s] | Significance of decrease in compound concentration (in words) [1]
O=C(/C=C/CCc1ccc(O)c(O)c1)CCc1ccc(O)c(O)c1 [hirsutenone (3), hirsutenone] | – | 99.63 ± 0.37 | – | 83.80 ± 2.41 * % | – | not detected in the acceptor phase | not detected in the acceptor phase | – | – | decreased significantly only at pH 7.4
O=C(/C=C/CCc1ccc(O)cc1)CCc1ccc(O)cc1 [platyphyllenone (5), platyphyllenone] | – | 99.45 ± 1.05 | 94.98 ± 2.10% and 94.98 ± 2.10 * % | 90.40 ± 1.52% and 90.40 ± 1.52 * % | 12 | > −6.0 | greater than −5.0 | – | 5.75 | significant decrease both at pH 6.8 and 7.4
C[C@@H]1O[C@@H](Oc2c(-c3ccc(O)c(O)c3)oc3cc(O)cc(O)c3c2=O)[C@H](O)[C@H](O)[C@H]1O [quercitrin (10), quercitrin] | stable | 100.91 ± 0.53 | 102.35 ± 1.85% | 100.75 ± 0.96% | – | not detected in the acceptor phase | not detected in the acceptor phase | – | – | –

Further lines, with some results ahead:

Aqueous stability at all three investigated pH values (in words) [1] | Aqueous stability pH = 1.2: compound concentration after 4 h of incubation compared to the initial value [1] [%] | Aqueous stability pH = 6.8: compound concentration after 4 h of incubation compared to the initial value [1] | Aqueous stability pH = 7.4: compound concentration after 4 h of incubation compared to the initial value [1] | Papp at 4 h, 100 µM [2] [×10⁻⁶ cm/s] | log Pe PAMPA-BBB [3] | log Pe PAMPA-GI [2] | Aqueous stability pH = 7.4: compound concentration after 4 h of incubation compared to the initial value ([1]; listed as 2) [%] | Papp at 4 h, 100 µM ([3]; PAMPA, pH 7.4, read-out: log Pe PAMPA-BBB (converted)) [×10⁻⁶ cm/s] | SMILES | Significance of decrease in compound concentration (in words) [1]
stable | 102.75 ± 1.09 | 101.51 ± 1.75% | 103.28 ± 1.81% | 3.24 | – | – | – | – | O=C1CCc2ccc(O)c(c2)-c2cc(ccc2O)C[C@H](O)[C@H](O)[C@H]1O [carpinontriol B (9), carpinontriol B] | –
stable | 99.97 ± 1.01 | 102.68 ± 2.45% | 100.92 ± 2.02% | – | not detected in the acceptor phase | not detected in the acceptor phase | – | – | COc1c2cc(c(OC)c1O)Oc1ccc(cc1)CCC(=O)C[C@H](O)/C=C\2 [giffonin F (8), giffonin F] | –
– | 98.67 ± 2.43 | 91.22 ± 3.01 * % | 59.93 ± 2.85 * % | – | not detected in the acceptor phase | not detected in the acceptor phase | 59.93 ± 2.85 | – | O=C(CCc1ccc(O)c(O)c1)C[C@H](CCc1ccc(O)c(O)c1)O[C@@H]1OC[C@@H](O)[C@H](O)[C@H]1O [oregonin (2), oregonin] | significant decrease both at pH 6.8 and 7.4

From PMC9231376, “Membrane Permeability and Aqueous Stability Study of Linear and Cyclic Diarylheptanoids from Corylus maxima” (Pharmaceutics, 2022)
